16 compounds from US20090099167A1, “Organic compounds” (Novartis Institutes for Biomedical Research, priority 2004, published 2009) can be followed below.

pIC50: −log10 of the molar value.

Data set [1] addresses T1, human VEGF-R2 receptor (KDR) (Homo sapiens, UniProt P35968).
T1 construct: expressed in transfected cells; host or cells: CHO cells
Description: VEGF-induced KDR autophosphorylation in transfected CHO cells, sandwich ELISA. The data set is classed as cell-based. The note with it: Table 5; read-out: KDR, IC50 class. The protocol: The compounds to be tested are then diluted in culture medium (without FCS, with 0.1% bovine serum albumin) and added to the cells. (Controls comprise medium without test compounds). After two hours' incubation at 37° C., recombinant VEGF is added; the final VEGF concentration is 20 ng/ml). After a further five minutes incubation at 37° C., the cells are washed twice with ice-cold PBS (phosphate-buffered saline) and immediately lysed in 100 μl lysis buffer per well. The lysates are then centrifuged to remove the cell nuclei, and the protein concentrations of the supernatants are determined using a commercial protein assay (BIORAD). The lysates can then either be immediately used or, if necessary, stored at −20° C. A sandwich ELISA is carried out to measure the VEGF-R2 phosphorylation: a monoclonal antibody to VEGF-R2 (for example Mab 1495.12.14; ProQinase, Freiburg, Germany) is immobilized on black ELISA plates (OptiPlate™ HTRF-96 from Packard). The plates are then washed and the remaining free protein-binding sites are saturated with 3% TopBlock® (Juro, Cat. # TB232010) in phosphate buffered saline with Tween 20® (polyoxyethylen(20)-sorbitane monolaurate, ICI/Uniquema) (PBST). The cell lysates (20 μg protein per well) are then incubated in these plates overnight at 4° C. together with an antiphosphotyrosine antibody coupled with alkaline phosphatase (PY20:AP from Zymed). […] The luminescence is measured in a Packard Top Count Microplate Scintillation Counter. The difference between the signal of the positive control (stimulated with VEGF) and that of the negative control (not stimulated with VEGF) corresponds to VEGF-induced VEGF-R2 phosphorylation (=100%). The activity of the tested substances is calculated as percent inhibition of VEGF-induced VEGF-R2 phosphorylation, wherein the concentration of substance that induces half the maximum inhibition is defined as the IC50 (inhibitory dose for 50% inhibition). […] Flt3 kinase inhibition is determined as follows: The baculovirus donor vector pFbacG01 (GIBCO) is used to generate a recombinant baculovirus expressing the amino acid region amino acids 563-993 of the cytoplasmic kinase domain of human Flt-3. The coding sequence for the cytoplasmic domain of Flt-3 is amplified by PCR from human c-DNA libraries (Clontech). The amplified DNA fragments and the pFbacG01 vector are made compatible for ligation by digestion with BamH1 and HindIII. Ligation of these DNA fragments results in the baculovirus donor plasmid Flt-3(1.1). The production of the viruses, the expression of proteins in Sf9 cells and the purification of the GST-fused proteins are performed as follows: Production of virus: Transfer vector (pFbacG01-Flt-3) containing the Flt-3 kinase domain is transfected into the DH10Bac cell line (GIBCO) and the transfected cells are plated on selective agar plates. Colonies without insertion of the fusion sequence into the viral genome (carried by the bacteria) are blue. Single white colonies are picked and viral DNA (bacmid) is isolated from the bacteria by standard plasmid purification procedures. Sf9 or Sf21 cells (American Type Culture Collection) are then transfected in flasks with the viral DNA using Cellfectin reagent. Determination of small scale protein expression in Sf9 cells: Virus containing media is collected from the transfected cell culture and used for infection to increase its titre. Virus containing media obtained after two rounds of infection is used for large-scale protein expression. For large-scale protein expression 100 cm^2 round tissue culture plates are seeded with 5×10^7 cells/plate and infected with 1 mL of virus-containing media (approx. 5 MOIs). After 3 days the cells are scraped off the plate and centrifuged at 500 rpm for 5 min. Cell pellets from 10-20, 100 cm^2 plates, are resuspended in 50 mL of ice-cold lysis buffer (25 mMTris-HCl, pH 7.5, 2 mM EDTA, 1% NP-40, 1 mM DTT, 1 mM PMSF). The cells are stirred on ice for 15 min and then centrifuged at 5000 rpms for 20 min. […]

A further data set has as its target c-Src kinase (Homo sapiens, UniProt P12931). Description: c-Src kinase inhibition. The data set is classed as biochemical. The note with it: Table 5; read-out: c-scr, IC50 class. The source says:
An appropriate assay is described in Andrejauskas-Buchdunger et al., Cancer Res. 52, 5353-8 (1992).

The target in another data set is Cdk1/cycB (UniProt P06493). Description: Cdk1/cycB kinase assay, histone H1 substrate. The note with it: Table 5; read-out: CDK1/B, IC50 class. The data set is classed as biochemical, starfish. The gist of the method:
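Active Cdk1/cycB was purified from starfish oocytes arrested in M phase with 1-methyladenine, using p9CKShs-sepharose. Reactions ran 20 min at ambient temperature and were stopped with EDTA. Phosphorylated product was captured on Immobilon P membranes, washed in H3PO4 and EtOH, and counted by scintillation.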

T1 sequence (P35968 20-1356): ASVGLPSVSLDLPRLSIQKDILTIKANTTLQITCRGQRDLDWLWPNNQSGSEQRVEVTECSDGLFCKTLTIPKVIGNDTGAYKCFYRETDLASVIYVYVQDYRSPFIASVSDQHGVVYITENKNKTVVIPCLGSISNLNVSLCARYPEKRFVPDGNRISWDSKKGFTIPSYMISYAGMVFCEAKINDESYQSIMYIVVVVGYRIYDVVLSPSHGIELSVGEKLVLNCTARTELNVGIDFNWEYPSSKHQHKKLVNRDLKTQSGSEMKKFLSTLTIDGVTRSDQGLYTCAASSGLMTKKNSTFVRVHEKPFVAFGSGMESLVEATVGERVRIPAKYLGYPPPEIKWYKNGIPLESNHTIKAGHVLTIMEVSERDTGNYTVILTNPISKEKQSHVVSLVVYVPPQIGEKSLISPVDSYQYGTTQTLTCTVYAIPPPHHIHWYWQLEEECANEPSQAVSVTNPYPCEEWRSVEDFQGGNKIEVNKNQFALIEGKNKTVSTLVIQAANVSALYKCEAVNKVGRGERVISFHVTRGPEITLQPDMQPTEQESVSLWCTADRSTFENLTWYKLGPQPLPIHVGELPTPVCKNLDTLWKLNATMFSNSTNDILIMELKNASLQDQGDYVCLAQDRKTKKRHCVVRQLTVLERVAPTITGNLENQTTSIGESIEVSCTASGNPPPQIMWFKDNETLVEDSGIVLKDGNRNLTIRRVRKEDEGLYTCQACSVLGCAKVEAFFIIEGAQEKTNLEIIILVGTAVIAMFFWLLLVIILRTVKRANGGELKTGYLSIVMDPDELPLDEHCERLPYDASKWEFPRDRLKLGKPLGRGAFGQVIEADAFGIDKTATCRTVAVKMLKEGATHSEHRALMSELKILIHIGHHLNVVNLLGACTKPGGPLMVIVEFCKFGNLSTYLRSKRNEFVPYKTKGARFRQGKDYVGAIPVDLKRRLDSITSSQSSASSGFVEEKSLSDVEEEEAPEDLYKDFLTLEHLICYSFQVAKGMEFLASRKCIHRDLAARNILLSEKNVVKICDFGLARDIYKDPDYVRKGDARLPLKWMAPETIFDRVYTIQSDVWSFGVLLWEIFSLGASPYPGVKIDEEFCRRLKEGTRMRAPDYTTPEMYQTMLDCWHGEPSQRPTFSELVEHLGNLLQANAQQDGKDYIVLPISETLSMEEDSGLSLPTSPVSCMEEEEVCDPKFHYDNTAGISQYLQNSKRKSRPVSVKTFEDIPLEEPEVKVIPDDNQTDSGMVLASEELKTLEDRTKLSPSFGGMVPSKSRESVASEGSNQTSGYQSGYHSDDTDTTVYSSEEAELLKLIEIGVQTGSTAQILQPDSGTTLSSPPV
c-Src kinase, sequence (P12931 whole entry): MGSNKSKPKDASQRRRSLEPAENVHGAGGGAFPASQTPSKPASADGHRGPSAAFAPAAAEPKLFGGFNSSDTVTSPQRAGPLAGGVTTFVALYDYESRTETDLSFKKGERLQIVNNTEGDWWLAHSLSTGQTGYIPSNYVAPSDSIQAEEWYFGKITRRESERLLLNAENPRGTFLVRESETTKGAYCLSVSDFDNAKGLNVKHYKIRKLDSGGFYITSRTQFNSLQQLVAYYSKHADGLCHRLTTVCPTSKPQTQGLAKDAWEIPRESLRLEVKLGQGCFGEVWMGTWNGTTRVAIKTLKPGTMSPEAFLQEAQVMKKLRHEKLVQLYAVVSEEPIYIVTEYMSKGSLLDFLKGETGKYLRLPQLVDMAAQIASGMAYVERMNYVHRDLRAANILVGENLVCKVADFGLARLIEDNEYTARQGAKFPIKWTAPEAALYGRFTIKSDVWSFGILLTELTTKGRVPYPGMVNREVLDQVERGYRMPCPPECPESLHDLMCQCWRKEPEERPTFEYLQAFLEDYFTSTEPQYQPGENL

As to `Cc1nc2c(-c3cccc(N4CCN(CCO)CC4)c3)cnn2c(N)c1-c1cccc(Cl)c1` [Example 90, 2-(4-{3-[7-Amino-6-(3-chloro-phenyl)-5-methyl-pyrazolo[1,5-a]pyrimidin-3-yl]-phenyl}-piperazin-1-yl)-ethanol], the melting point is 108 to 116 °C. For the same compound, the pIC50 in data set [1] is 5.00 to 6.00. In addition, the pIC50 on c-Src kinase was over 6.00. Besides, the pIC50 at Cdk1/cycB was under 5.00.
For `Cc1nc2c(-c3cccc(N4CCN(CCO)CC4)c3)cnn2c(N)c1-c1ccc(F)cc1` [Example 97, 2-(4-{3-[7-Amino-6-(4-fluoro-phenyl)-5-methyl-pyrazolo[1,5-a]pyrimidin-3-yl]-phenyl}-piperazin-1-yl)-ethanol] the same measures were 209 to 212 °C, 5.00 to 6.00, over 6.00 and under 5.00.
For `COc1ccc(-c2cnn3c(N)c(-c4ccc(F)c(F)c4)c(C)nc23)cc1OC` [Example 99, 6-(3,4-Difluoro-phenyl)-3-(3,4-dimethoxy-phenyl)-5-methyl-pyrazolo[1,5-a]pyrimidin-7-ylamine] the same measures were 230 to 235 °C, under 5.00, over 6.00 and under 5.00.
For `COc1ccc(-c2cnn3c(N)c(-c4cccc(Cl)c4)c(C)nc23)cc1` [Example 88, 6-(3-Chloro-phenyl)-3-(4-methoxy-phenyl)-5-methyl-pyrazolo[1,5-a]pyrimidin-7-ylamine] the same measures were 171 to 172 °C, 5.00 to 6.00, over 6.00 and under 5.00.
In turn, `Cc1nc2c(-c3cccc(N4CCN(C5CCN(C)CC5)CC4)c3)cnn2c(N)c1-c1cccc(Cl)c1` [Example 81, 6-(3-Chloro-phenyl)-5-methyl-3-{3-[4-(1-methyl-piperidin-4-yl)-piperazin-1-yl]-phenyl}-pyrazolo[1,5-a]pyrimidin-7-ylamine] had a melting point of 180 to 185 °C. The pIC50 in data set [1] is over 6.00. Further, on c-Src kinase, the pIC50 was over 6.00. For the same compound, the pIC50 at Cdk1/cycB is under 5.00.
Take `COc1ccc(-c2cnn3c(N)c(-c4ccc(F)cc4)c(C)nc23)cc1` [Example 96, 6-(4-Fluoro-phenyl)-3-(4-methoxy-phenyl)-5-methyl-pyrazolo[1,5-a]pyrimidin-7-ylamine]: the melting point is 243 to 244 °C. Further, the pIC50 in data set [1] is under 5.00. Also, the pIC50 at c-Src kinase was over 6.00. The pIC50 on Cdk1/cycB is under 5.00.
The compound `Cc1nc2c(-c3cccc(N4CCC(N5CCCC5)CC4)c3)cnn2c(N)c1-c1cccc(Cl)c1` [Example 102, 6-(3-Chloro-phenyl)-5-methyl-3-[3-(4-pyrrolidin-1-yl-piperidin-1-yl)-phenyl]-pyrazolo[1,5-a]pyrimidin-7-ylamine] came in with a melting point of 188 to 193 °C. Further, the pIC50 in data set [1] is under 5.00. Moreover, the pIC50 on c-Src kinase is over 6.00. In addition, the pIC50 on Cdk1/cycB is under 5.00.
`Cc1nc2c(-c3cccc(N4CCN(C)CC4)c3)cnn2c(N)c1-c1ccc(F)c(Cl)c1` [Example 82, 6-(3-Chloro-4-fluoro-phenyl)-5-methyl-3-[3-(4-methyl-piperazin-1-yl)-phenyl]pyrazolo[1,5-a]pyrimidin-7-ylamine]: the melting point was in the range of 224 to 226 °C. Moreover, in data set [1], the pIC50 was under 5.00. Further, the pIC50 on c-Src kinase was over 6.00. For the same compound, at Cdk1/cycB, the pIC50 was under 5.00.
For the compound `CN1CCN(c2cccc(-c3cnn4c(N)c(Cc5ccccc5)cnc34)c2)CC1` [Example 91, 6-Benzyl-3-[3-(4-methyl-piperazin-1-yl)-phenyl]-pyrazolo[1,5-a]pyrimidin-7-ylamine], the melting point was in the range of 72 to 75 °C. In addition, in data set [1], the pIC50 is 5.00 to 6.00. Also, on c-Src kinase, the pIC50 was under 5.00. Also, the pIC50 on Cdk1/cycB is under 5.00.
Compound `Cc1nc2c(-c3ccc(N4CCN(C)CC4)cc3)cnn2c(N)c1-c1cccc(Cl)c1` [Example 73, 6-(3-Chloro-phenyl)-5-methyl-3-[4-(4-methyl-piperazin-1-yl)-phenyl]-pyrazolo[1,5-a]pyrimidin-7-ylamine] yielded a melting point of 113 to 115 °C. The pIC50 in data set [1] is over 6.00. In addition, the pIC50 at c-Src kinase was over 6.00. On Cdk1/cycB, the pIC50 was under 5.00.
In the case of `Cc1nc2c(-c3cccc(N4CCOCC4)c3)cnn2c(N)c1-c1cccc(Cl)c1` [Example 87, 6-(3-Chloro-phenyl)-5-methyl-3-(3-morpholin-4-yl-phenyl)-pyrazolo[1,5-a]pyrimidin-7-ylamine], the melting point was 165 to 167 °C. Moreover, the pIC50 in data set [1] is 5.00 to 6.00. Also, on c-Src kinase, the pIC50 was over 6.00. In addition, the pIC50 at Cdk1/cycB was under 5.00.
Turning to `COc1ccc(-c2cnn3c(N)c(-c4cccc(Cl)c4)c(C)nc23)cc1OC` [Example 93, 6-(3-Chloro-phenyl)-3-(3,4-dimethoxy-phenyl)-5-methyl-pyrazolo[1,5-a]pyrimidin-7-ylamine], the melting point is 223 to 226 °C. Further, the pIC50 in data set [1] was under 5.00. In addition, at c-Src kinase, the pIC50 was over 6.00. The pIC50 at Cdk1/cycB was under 5.00.
For `COc1ccc(-c2cnn3c(N)c(-c4ccc(F)c(Cl)c4)c(C)nc23)cc1` [Example 95, 6-(3-Chloro-4-fluoro-phenyl)-3-(4-methoxy-phenyl)-5-methyl-pyrazolo[1,5-a]pyrimidin-7-ylamine], the melting point was 224 to 227 °C. Besides, the pIC50 in data set [1] was under 5.00. Besides, the pIC50 at c-Src kinase is 5.00 to 6.00. Besides, the pIC50 at Cdk1/cycB was under 5.00.
`Cc1nc2c(-c3cccc(N4CCN(C)CC4)c3)cnn2c(N)c1-c1ccc(F)c(F)c1` [Example 98, 6-(3,4-Difluoro-phenyl)-5-methyl-3-[3-(4-methyl-piperazin-1-yl)-phenyl]-pyrazolo[1,5-a]pyrimidin-7-ylamine] had a melting point of 216 to 219 °C. The pIC50 in data set [1] was under 5.00. The pIC50 at c-Src kinase is over 6.00. Further, the pIC50 at Cdk1/cycB was under 5.00.
With `Cc1nc2c(-c3cccc(N4CCN(C)CC4)c3)cnn2c(N)c1-c1cccc(Br)c1` [Example 84, 6-(3-Bromo-phenyl)-5-methyl-3-[3-(4-methyl-piperazin-1-yl)-phenyl]-pyrazolo[1,5-a]pyrimidin-7-ylamine], the melting point was 107 to 113 °C. Also, the pIC50 in data set [1] was 5.00 to 6.00. Moreover, the pIC50 at c-Src kinase was over 6.00. On Cdk1/cycB, the pIC50 was under 5.00.
For `Cc1nc2c(-c3cccc(N4CCN(C)CC4)c3)cnn2c(N)c1-c1ccc(F)cc1` [Example 80, 6-(4-Fluoro-phenyl)-5-methyl-3-[3-(4-methyl-piperazin-1-yl)-phenyl]-pyrazolo[1,5-a]pyrimidin-7-ylamine] the same measures were 204 to 206 °C, 5.00 to 6.00, over 6.00 and under 5.00.
